Laboratory results reported in patent US6770596B1, “Fused tricyclic compounds, process for their preparation, and herbicidal compositions containing them” (Ishihara Sangyo Kaisha Ltd., priority 2002, dated 2004).

Tests used:
Assay type in all cases: in vivo
[1] = test system: ivyleaf morningglory (Ipomoea hederacea, IPH); test: Pre-emerge test, ivyleaf morningglory; conditions: 250 g ai/ha, 14 days after application, rating scale 0-100 (0 no damage, 100 complete death)
Excerpt: (§1) A standard greenhouse herbicide activity screening system was used to evaluate the herbicidal efficacy and crop safety of these test compounds. Seven broadleaf weed species including redroot pigweed (Amaranthus retroflexus, AMR), velvetleaf (Abutilon theophrasti, ABT), sicklepod (Cassia obtusifolia, CAO), ivyleaf morningglory (Ipomoea hederacea, IPH), lambsquarters (Chenopodium album, CHA), common ragweed (Ambrosia artemisiifolia L., AML), and cocklebur (Xanthium strumariunt, XAS) were used as test species. Four grass weed species including green foxtail (Setaria viridis, SEV), barnyardgrass (Echinachloa crus-galli, ECC), johnsongrass (Sorghum halepense, SOH), and large crabgrass (Digitaria sanguinalis, DIS) were also used. In addition, four crop species, field corn (Zea mays L., var. Dekalb 535, CORN), soybean (Glycine max L., var. Pella 86, SOY), upland rice (Oryza sp., var.Tebonnet, RICE), and wheat (Triticum aestivum) were included all plants were grown in 10 cm square plastic pots which were filled with a sandy loam soil mix.
(§2) For pre-emerge tests, seeds were planted one day prior to application of the test compounds. All test compounds were dissolved in acetone and applied to the test pots in a volume of 187 l/ha. Test materials were applied at rates ranging from 8 g ai/ha to 1000 g ai/ha using a track sprayer equipped with a TJ8001E even flow flat fan spray nozzle. This application simulates a typical commercial field herbicide application.
(§3) At 14 days after application of the test materials, phytotoxicity ratings were recorded. A rating scale of 0-100 was used for both pre and post emerge tests as previously described in Research Methods in Weed Science, 2nd edition, B, Truelove, Ed., Southern Weed Science Society, Auburn University, Auburn, Ala., 1977. Briefly, “0” corresponds to no damage and “100” corresponds to complete death of all plants in the test unit. This scale was used both to determine efficacy against weed species and damage to crop species. Herbicide activity data for various compounds of this invention, which are shown by compound No. in Tables 1-3, are shown in Tables 5 and 6.

[2] = test system: field corn (Zea mays L., var. Dekalb 535, CORN); test: Post-emerge test, crop damage field corn; conditions: post-emerge, 250 g ai/ha, 14 days after application, rating scale 0-100 (0 no damage, 100 complete death)
Excerpt: as §1, §2
(§4) For post-emerge tests, seeds were planted 8-21 days prior to the test to allow emergence and good foliage development prior to application of the test substances. At the time of the post-emerge application, plants of all species were usually at the 2-3 leaf stage of development. In the postemerge test, a commercial non-ionic surfactant was also included (0.25% v/v) to enhance wetting of the leaf surfaces of target plants.
as §3

[3] = test system: johnsongrass (Sorghum halepense, SOH); test: Post-emerge test, johnsongrass; conditions: 250 g ai/ha, 14 days after application, rating scale 0-100 (0 no damage, 100 complete death)
Excerpt: as §1, §2, §4, §3

[4] = test system: redroot pigweed (Amaranthus retroflexus, AMR); test: Pre-emerge test, redroot pigweed; conditions: 250 g ai/ha, 14 days after application, rating scale 0-100 (0 no damage, 100 complete death)
Excerpt: as §1, §2, §3

[5] = test system: upland rice (Oryza sp., var.Tebonnet, RICE); test: Pre-emerge test, crop damage upland rice; conditions: pre-emerge, 250 g ai/ha, 14 days after application, rating scale 0-100 (0 no damage, 100 complete death)
Excerpt: as §1, §2, §3

[6] = test system: large crabgrass (Digitaria sanguinalis, DIS); test: Post-emerge test, large crabgrass; conditions: 250 g ai/ha, 14 days after application, rating scale 0-100 (0 no damage, 100 complete death)
Excerpt: as §1, §2, §4, §3

[7] = test system: ivyleaf morningglory (Ipomoea hederacea, IPH); test: Post-emerge test, ivyleaf morningglory; conditions: 250 g ai/ha, 14 days after application, rating scale 0-100 (0 no damage, 100 complete death)
Excerpt: as §1, §2, §4, §3

[8] = test system: barnyardgrass (Echinachloa crus-galli, ECC); test: Post-emerge test, barnyardgrass; conditions: 250 g ai/ha, 14 days after application, rating scale 0-100 (0 no damage, 100 complete death)
Excerpt: as §1, §2, §4, §3

[9] = test system: soybean (Glycine max L., var. Pella 86, SOY); test: Post-emerge test, crop damage soybean; conditions: post-emerge, 250 g ai/ha, 14 days after application, rating scale 0-100 (0 no damage, 100 complete death)
Excerpt: as §1, §2, §4, §3

[10] = test system: velvetleaf (Abutilon theophrasti, ABT); test: Pre-emerge test, velvetleaf; conditions: 250 g ai/ha, 14 days after application, rating scale 0-100 (0 no damage, 100 complete death)
Excerpt: as §1, §2, §3

[11] = test system: cocklebur (Xanthium strumariunt, XAS); test: Pre-emerge test, cocklebur; conditions: 250 g ai/ha, 14 days after application, rating scale 0-100 (0 no damage, 100 complete death)
Excerpt: as §1, §2, §3

[12] = test system: soybean (Glycine max L., var. Pella 86, SOY); test: Pre-emerge test, crop damage soybean; conditions: pre-emerge, 250 g ai/ha, 14 days after application, rating scale 0-100 (0 no damage, 100 complete death)
Excerpt: as §1, §2, §3

[13] = test system: sicklepod (Cassia obtusifolia, CAO); test: Pre-emerge test, sicklepod; conditions: 250 g ai/ha, 14 days after application, rating scale 0-100 (0 no damage, 100 complete death)
Excerpt: as §1, §2, §3

[14] = test system: wheat (Triticum aestivum); test: Post-emerge test, crop damage wheat; conditions: post-emerge, 250 g ai/ha, 14 days after application, rating scale 0-100 (0 no damage, 100 complete death)
Excerpt: as §1, §2, §4, §3

[15] = test system: lambsquarters (Chenopodium album, CHA); test: Pre-emerge test, lambsquarters; conditions: 250 g ai/ha, 14 days after application, rating scale 0-100 (0 no damage, 100 complete death)
Excerpt: as §1, §2, §3

[16] = test system: johnsongrass (Sorghum halepense, SOH); test: Pre-emerge test, johnsongrass; conditions: 250 g ai/ha, 14 days after application, rating scale 0-100 (0 no damage, 100 complete death)
Excerpt: as §1, §2, §3

[17] = test system: green foxtail (Setaria viridis, SEV); test: Pre-emerge test, green foxtail; conditions: 250 g ai/ha, 14 days after application, rating scale 0-100 (0 no damage, 100 complete death)
Excerpt: as §1, §2, §3

[18] = test system: upland rice (Oryza sp., var.Tebonnet, RICE); test: Post-emerge test, crop damage upland rice; conditions: post-emerge, 250 g ai/ha, 14 days after application, rating scale 0-100 (0 no damage, 100 complete death)
Excerpt: as §1, §2, §4, §3

[19] = test system: green foxtail (Setaria viridis, SEV); test: Post-emerge test, green foxtail; conditions: 250 g ai/ha, 14 days after application, rating scale 0-100 (0 no damage, 100 complete death)
Excerpt: as §1, §2, §4, §3

[20] = test system: velvetleaf (Abutilon theophrasti, ABT); test: Post-emerge test, velvetleaf; conditions: 250 g ai/ha, 14 days after application, rating scale 0-100 (0 no damage, 100 complete death)
Excerpt: as §1, §2, §4, §3

[21] = test system: wheat (Triticum aestivum); test: Pre-emerge test, crop damage wheat; conditions: pre-emerge, 250 g ai/ha, 14 days after application, rating scale 0-100 (0 no damage, 100 complete death)
Excerpt: as §1, §2, §3

[22] = test system: sicklepod (Cassia obtusifolia, CAO); test: Post-emerge test, sicklepod; conditions: 250 g ai/ha, 14 days after application, rating scale 0-100 (0 no damage, 100 complete death)
Excerpt: as §1, §2, §4, §3

[23] = test system: field corn (Zea mays L., var. Dekalb 535, CORN); test: Pre-emerge test, crop damage field corn; conditions: pre-emerge, 250 g ai/ha, 14 days after application, rating scale 0-100 (0 no damage, 100 complete death)
Excerpt: as §1, §2, §3

[24] = test system: redroot pigweed (Amaranthus retroflexus, AMR); test: Post-emerge test, redroot pigweed; conditions: 250 g ai/ha, 14 days after application, rating scale 0-100 (0 no damage, 100 complete death)
Excerpt: as §1, §2, §4, §3

[25] = test system: common ragweed (Ambrosia artemisiifolia L., AML); test: Post-emerge test, common ragweed; conditions: 250 g ai/ha, 14 days after application, rating scale 0-100 (0 no damage, 100 complete death)
Excerpt: as §1, §2, §4, §3

[26] = test system: barnyardgrass (Echinachloa crus-galli, ECC); test: Pre-emerge test, barnyardgrass; conditions: 250 g ai/ha, 14 days after application, rating scale 0-100 (0 no damage, 100 complete death)
Excerpt: as §1, §2, §3

[27] = test system: large crabgrass (Digitaria sanguinalis, DIS); test: Pre-emerge test, large crabgrass; conditions: 250 g ai/ha, 14 days after application, rating scale 0-100 (0 no damage, 100 complete death)
Excerpt: as §1, §2, §3

[28] = test system: common ragweed (Ambrosia artemisiifolia L., AML); test: Pre-emerge test, common ragweed; conditions: 250 g ai/ha, 14 days after application, rating scale 0-100 (0 no damage, 100 complete death)
Excerpt: as §1, §2, §3

[29] = test system: lambsquarters (Chenopodium album, CHA); test: Post-emerge test, lambsquarters; conditions: 250 g ai/ha, 14 days after application, rating scale 0-100 (0 no damage, 100 complete death)
Excerpt: as §1, §2, §4, §3

[30] = test system: cocklebur (Xanthium strumariunt, XAS); test: Post-emerge test, cocklebur; conditions: 250 g ai/ha, 14 days after application, rating scale 0-100 (0 no damage, 100 complete death)
Excerpt: as §1, §2, §4, §3

Row | SMILES | Pre-emerge Herbicidal Activity IPH (phytotoxicity rating) [1] | Post-emerge crop damage CORN (phytotoxicity rating) [2] | Post-emerge Herbicidal Activity SOH (phytotoxicity rating) [3] | Pre-emerge Herbicidal Activity AMR (phytotoxicity rating) [4] | Pre-emerge crop damage RICE (phytotoxicity rating) [5] | Post-emerge Herbicidal Activity DIS (phytotoxicity rating) [6] | Post-emerge Herbicidal Activity IPH (phytotoxicity rating) [7] | Post-emerge Herbicidal Activity ECC (phytotoxicity rating) [8] | Post-emerge crop damage SOY (phytotoxicity rating) [9] | Pre-emerge Herbicidal Activity ABT (phytotoxicity rating) [10] | Pre-emerge Herbicidal Activity XAS (phytotoxicity rating) [11] | Pre-emerge crop damage SOY (phytotoxicity rating) [12] | Pre-emerge Herbicidal Activity CAO (phytotoxicity rating) [13] | Post-emerge crop damage WHEAT (phytotoxicity rating) [14] | Pre-emerge Herbicidal Activity CHA (phytotoxicity rating) [15] | Pre-emerge Herbicidal Activity SOH (phytotoxicity rating) [16] | Pre-emerge Herbicidal Activity SEV (phytotoxicity rating) [17] | Post-emerge crop damage RICE (phytotoxicity rating) [18] | Post-emerge Herbicidal Activity SEV (phytotoxicity rating) [19] | Post-emerge Herbicidal Activity ABT (phytotoxicity rating) [20] | further results
1 | CC1Oc2cc(F)c(-c3nn(C)c(C(F)(F)F)c3Cl)c3c2N(C1=O)C(C)C(=O)N3 (mixture of isomers) [1-51] | 98 | 50 | 80 | 100 | 70 | 90 | 100 | 100 | 60 | 100 | 99 | 65 | 100 | 60 | 100 | 100 | 100 | 75 | 100 | 100 | Pre-emerge crop damage WHEAT (phytotoxicity rating) [21]: 60; Post-emerge Herbicidal Activity CAO (phytotoxicity rating) [22]: 100; Pre-emerge crop damage CORN (phytotoxicity rating) [23]: 70; Post-emerge Herbicidal Activity AMR (phytotoxicity rating) [24]: 100; Post-emerge Herbicidal Activity AML (phytotoxicity rating) [25]: 85; Pre-emerge Herbicidal Activity ECC (phytotoxicity rating) [26]: 100; Pre-emerge Herbicidal Activity DIS (phytotoxicity rating) [27]: 100; Pre-emerge Herbicidal Activity AML (phytotoxicity rating) [28]: 100; Post-emerge Herbicidal Activity CHA (phytotoxicity rating) [29]: 100; Post-emerge Herbicidal Activity XAS (phytotoxicity rating) [30]: 100
2 | CC1Oc2cc(F)c(-c3nn(C)c(C(F)(F)F)c3Cl)c3c2N(C1=O)C(C(C)C)C(=O)N3 (mixture of isomers) [1-53] | 95 | 5 | 0 | 100 | 5 | 0 | 100 | 70 | 20 | 100 | 100 | 50 | 100 | 10 | 100 | 90 | 99 | 0 | 60 | 100 | Pre-emerge crop damage WHEAT (phytotoxicity rating) [21]: 15; Post-emerge Herbicidal Activity CAO (phytotoxicity rating) [22]: 50; Pre-emerge crop damage CORN (phytotoxicity rating) [23]: 25; Post-emerge Herbicidal Activity AMR (phytotoxicity rating) [24]: 100; Post-emerge Herbicidal Activity AML (phytotoxicity rating) [25]: 75; Pre-emerge Herbicidal Activity ECC (phytotoxicity rating) [26]: 95; Pre-emerge Herbicidal Activity DIS (phytotoxicity rating) [27]: 98; Pre-emerge Herbicidal Activity AML (phytotoxicity rating) [28]: 95; Post-emerge Herbicidal Activity CHA (phytotoxicity rating) [29]: 100; Post-emerge Herbicidal Activity XAS (phytotoxicity rating) [30]: 100
